In ChEMBL document CHEMBL2029248, “Fused bicycles as arylketone bioisosteres leading to potent, orally active thiadiazole H3 antagonists” (Bioorg Med Chem Lett, 2012):
Active and inactive are the calls of the source. The rule behind the calls is not given here.

Key:
Mus musculus [1] = experiment: Ex-vivo receptor occupancy in ICR mouse cortex assessed as displacement of [3H]N-alpha-methylhistamine from histamine H3 receptor at 10 mg/kg, po after 4 hrs post dose by scintillation counting; format: functional
Histamine H3 receptor [2] = biological target: Histamine H3 receptor (Homo sapiens, UniProt Q9Y5N1); experiment: Displacement of [3H]N-alpha-methylhistamine from recombinant human histamine H3 receptor expressed in HEK cell membranes after 30 mins by scintillation counting; set-up: species or system HEK293
Chain of Histamine H3 receptor (Homo sapiens, UniProt Q9Y5N1) (Q9Y5N1 whole entry): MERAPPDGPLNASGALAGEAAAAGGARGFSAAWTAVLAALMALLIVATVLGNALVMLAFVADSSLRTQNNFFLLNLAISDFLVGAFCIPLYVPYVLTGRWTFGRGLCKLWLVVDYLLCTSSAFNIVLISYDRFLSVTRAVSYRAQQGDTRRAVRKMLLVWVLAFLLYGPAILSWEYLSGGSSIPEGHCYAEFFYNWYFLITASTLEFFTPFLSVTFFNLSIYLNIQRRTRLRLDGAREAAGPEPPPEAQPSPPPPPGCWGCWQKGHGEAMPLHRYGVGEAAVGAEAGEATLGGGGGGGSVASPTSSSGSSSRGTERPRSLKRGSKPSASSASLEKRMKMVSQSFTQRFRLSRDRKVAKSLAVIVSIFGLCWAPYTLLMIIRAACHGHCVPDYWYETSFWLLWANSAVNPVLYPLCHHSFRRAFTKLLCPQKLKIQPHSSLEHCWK

[3] = AUC (0 to 6 hrs) in rat at 10 mg/kg, po; format: ADME, organism-based; set-up: time < 6 hr, dose 10 mg/kg, route oral; details: plasma
hERG = hERG (Homo sapiens, UniProt Q12809); experiment: Inhibition of human ERG at 10 uM
Chain of hERG (Q12809 whole entry): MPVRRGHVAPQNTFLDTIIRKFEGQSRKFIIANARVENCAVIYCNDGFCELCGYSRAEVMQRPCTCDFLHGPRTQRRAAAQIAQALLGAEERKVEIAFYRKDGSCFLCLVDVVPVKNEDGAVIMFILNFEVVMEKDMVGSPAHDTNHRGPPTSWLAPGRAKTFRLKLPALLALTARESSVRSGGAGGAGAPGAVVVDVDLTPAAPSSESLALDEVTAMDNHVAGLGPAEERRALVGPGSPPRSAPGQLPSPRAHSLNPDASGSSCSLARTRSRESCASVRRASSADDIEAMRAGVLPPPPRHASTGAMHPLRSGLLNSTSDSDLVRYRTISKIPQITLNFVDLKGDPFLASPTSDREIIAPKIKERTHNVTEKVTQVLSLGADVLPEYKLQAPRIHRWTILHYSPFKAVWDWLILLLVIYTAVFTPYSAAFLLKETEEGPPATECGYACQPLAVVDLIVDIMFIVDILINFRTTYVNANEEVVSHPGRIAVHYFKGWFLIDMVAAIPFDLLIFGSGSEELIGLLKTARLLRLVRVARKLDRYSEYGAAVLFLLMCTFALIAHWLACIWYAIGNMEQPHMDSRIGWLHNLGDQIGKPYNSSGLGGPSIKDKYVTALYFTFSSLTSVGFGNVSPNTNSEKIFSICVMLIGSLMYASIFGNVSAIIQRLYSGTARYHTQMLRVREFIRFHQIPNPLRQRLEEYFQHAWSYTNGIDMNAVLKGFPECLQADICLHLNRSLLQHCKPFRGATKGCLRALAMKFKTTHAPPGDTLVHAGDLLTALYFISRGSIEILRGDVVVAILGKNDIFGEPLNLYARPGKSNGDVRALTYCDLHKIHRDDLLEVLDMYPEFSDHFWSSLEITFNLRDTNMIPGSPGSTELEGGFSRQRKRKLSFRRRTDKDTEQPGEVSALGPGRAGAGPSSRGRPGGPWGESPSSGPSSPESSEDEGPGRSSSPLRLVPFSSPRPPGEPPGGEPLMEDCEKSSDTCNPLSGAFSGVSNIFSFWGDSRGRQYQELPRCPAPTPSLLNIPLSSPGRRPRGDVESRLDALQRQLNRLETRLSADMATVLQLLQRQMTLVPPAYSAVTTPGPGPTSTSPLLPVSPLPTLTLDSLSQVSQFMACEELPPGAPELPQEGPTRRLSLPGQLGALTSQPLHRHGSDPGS

Mus musculus [4] = experiment: Antiobesity activity in STZ-induced diabetic ICR mouse DIO model assessed as reduction in food intake at 30 mg/kg, po qd for 2 days relative to vehicle-treated control; format: functional; details: 48 h
Mus musculus [5] = experiment: Antidiabetic activity in STZ-induced diabetic ICR mouse DIO model assessed as glucose level at 30 mg/kg, po qd for 2 days; format: functional
Cytochrome P450 2D6 [6] = biological target: T1, Cytochrome P450 2D6 (Homo sapiens, UniProt P10635); experiment: Inhibition of CYP2D6 co-incubated with compound; format: ADME
T1 sequence (P10635 whole entry): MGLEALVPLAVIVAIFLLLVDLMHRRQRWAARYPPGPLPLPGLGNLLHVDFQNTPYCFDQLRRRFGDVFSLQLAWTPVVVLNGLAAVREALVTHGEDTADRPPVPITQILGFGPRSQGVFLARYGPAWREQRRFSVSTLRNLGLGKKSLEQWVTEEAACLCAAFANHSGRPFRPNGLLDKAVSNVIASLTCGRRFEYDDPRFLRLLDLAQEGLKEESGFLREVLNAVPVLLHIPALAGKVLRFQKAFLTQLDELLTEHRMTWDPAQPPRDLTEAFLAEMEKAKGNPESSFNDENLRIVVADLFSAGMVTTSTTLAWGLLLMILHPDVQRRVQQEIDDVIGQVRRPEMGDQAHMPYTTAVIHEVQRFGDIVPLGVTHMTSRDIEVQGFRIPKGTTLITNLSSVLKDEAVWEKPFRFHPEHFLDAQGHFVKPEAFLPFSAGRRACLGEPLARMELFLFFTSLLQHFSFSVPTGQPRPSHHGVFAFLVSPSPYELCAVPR

Cytochrome P450 2D6 [7] = biological target: T1, Cytochrome P450 2D6; experiment: Inhibition of CYP2D6 preincubated with compound; format: ADME
Mus musculus [8] = experiment: Antiobesity activity in STZ-induced diabetic ICR mouse DIO model assessed as change in body weight at 30 mg/kg, po qd for 2 days relative to vehicle-treated control; format: functional
[9] = Drug uptake in rat brain at 10 mg/kg, po after 4 hrs; format: ADME, organism-based; set-up: dose 10 mg/kg, route oral; details: read-out: Drug uptake
Cytochrome P450 3A4 [10] = biological target: T2, Cytochrome P450 3A4 (Homo sapiens, UniProt P08684); experiment: Inhibition of CYP3A4 preincubated with compound; format: ADME
T2 sequence (P08684 whole entry): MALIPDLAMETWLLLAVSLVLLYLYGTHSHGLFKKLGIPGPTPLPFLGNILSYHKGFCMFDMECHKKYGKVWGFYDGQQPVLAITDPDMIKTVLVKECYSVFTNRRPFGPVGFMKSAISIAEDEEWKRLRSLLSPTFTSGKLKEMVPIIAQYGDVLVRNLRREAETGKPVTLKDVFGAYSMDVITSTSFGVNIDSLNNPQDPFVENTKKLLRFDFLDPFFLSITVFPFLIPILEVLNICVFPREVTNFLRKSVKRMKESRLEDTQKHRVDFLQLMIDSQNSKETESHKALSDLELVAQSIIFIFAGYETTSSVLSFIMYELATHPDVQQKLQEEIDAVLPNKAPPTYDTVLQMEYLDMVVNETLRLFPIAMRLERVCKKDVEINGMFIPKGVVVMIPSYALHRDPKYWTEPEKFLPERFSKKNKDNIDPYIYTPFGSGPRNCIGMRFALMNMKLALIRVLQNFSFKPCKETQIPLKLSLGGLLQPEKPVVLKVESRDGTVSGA

Cytochrome P450 2C9 [11] = biological target: T3, Cytochrome P450 2C9 (Homo sapiens, UniProt P11712); experiment: Inhibition of CYP2C9 preincubated with compound; format: ADME; details: read-out: INH
T3 sequence (P11712 whole entry): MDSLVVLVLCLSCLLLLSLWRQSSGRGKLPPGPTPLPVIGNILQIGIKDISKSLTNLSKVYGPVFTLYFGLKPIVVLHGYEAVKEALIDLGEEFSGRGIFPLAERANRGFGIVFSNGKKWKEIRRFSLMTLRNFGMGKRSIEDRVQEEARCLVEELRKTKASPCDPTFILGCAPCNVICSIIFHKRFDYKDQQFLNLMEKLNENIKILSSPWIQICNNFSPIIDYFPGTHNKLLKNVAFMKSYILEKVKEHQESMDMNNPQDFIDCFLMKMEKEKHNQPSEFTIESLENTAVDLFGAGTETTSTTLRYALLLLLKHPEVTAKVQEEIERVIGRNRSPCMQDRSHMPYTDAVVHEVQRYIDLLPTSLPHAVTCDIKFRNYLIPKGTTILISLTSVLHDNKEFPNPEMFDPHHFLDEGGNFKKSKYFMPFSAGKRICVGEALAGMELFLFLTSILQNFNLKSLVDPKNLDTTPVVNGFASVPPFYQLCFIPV

Cytochrome P450 2C9 [12] = biological target: T3, Cytochrome P450 2C9; experiment: Inhibition of CYP2C9 co-incubated with compound; format: ADME
Cytochrome P450 3A4 [13] = biological target: T2, Cytochrome P450 3A4; experiment: Inhibition of CYP3A4 co-incubated with compound; format: ADME
Histamine H3 receptor [14] = biological target: Histamine H3 receptor (Mus musculus, UniProt P58406); experiment: Displacement of [3H]N-alpha-methylhistamine from mouse histamine H3 receptor
Chain of Histamine H3 receptor (Mus musculus, UniProt P58406) (P58406 whole entry): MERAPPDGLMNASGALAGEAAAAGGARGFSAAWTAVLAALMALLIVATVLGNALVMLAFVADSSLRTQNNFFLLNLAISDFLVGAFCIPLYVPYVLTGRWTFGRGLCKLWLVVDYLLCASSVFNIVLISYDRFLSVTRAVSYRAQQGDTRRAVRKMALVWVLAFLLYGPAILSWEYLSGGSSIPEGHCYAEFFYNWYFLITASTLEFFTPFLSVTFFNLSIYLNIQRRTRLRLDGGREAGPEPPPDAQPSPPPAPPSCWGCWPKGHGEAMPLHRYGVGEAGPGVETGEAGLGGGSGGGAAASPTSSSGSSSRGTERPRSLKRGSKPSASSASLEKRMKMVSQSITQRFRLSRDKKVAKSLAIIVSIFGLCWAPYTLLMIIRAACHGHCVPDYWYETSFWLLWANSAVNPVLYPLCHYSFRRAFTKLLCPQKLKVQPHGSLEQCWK

Mus musculus [15] = experiment: Antidiabetic activity in STZ-induced diabetic ICR mouse DIO model at 30 mg/kg, po qd for 2 days; format: functional, organism-based; set-up: dose 30 mg/kg
Mus musculus [16] = experiment: Antiobesity activity in STZ-induced diabetic ICR mouse DIO model at 30 mg/kg, po qd for 2 days; format: functional, organism-based; set-up: dose 30 mg/kg
Mus musculus [17] = experiment: Ex-vivo receptor occupancy in ICR mouse cortex assessed as displacement of [3H]N-alpha-methylhistamine from histamine H3 receptor at 30 mg/kg, po after 4 hrs post dose by scintillation counting; format: functional

## O=c1cccnn1-c1cccc(-c2nnc(N3CCC(N4CCCCC4)CC3)s2)c1
Mus musculus [1]
  Occ: 25%
Histamine H3 receptor [2]
  Ki: 12 nM

## O=C1COc2ccc(-c3nnc(N4CCC(N5CCCCC5)CC4)s3)cc2N1
Histamine H3 receptor [2]
  Ki: 22.1 nM

## CC(=O)Nc1cccc(-c2nnc(N3CCC(N4CCCCC4)CC3)s2)c1
Histamine H3 receptor [2]
  Ki: 16.5 nM

## Cc1cc(=O)c2cc(-c3nnc(N4CCC(N5CCCCC5)CC4)s3)ccc2o1
Histamine H3 receptor [2]
  Ki: 82.8 nM
[3]
  AUC(0-t) at 6 h: 8000 ng·h/mL

## c1cc(-c2nnc(N3CCC(N4CCCCC4)CC3)s2)c2ccncc2c1
Mus musculus [1]
  Occ: 19%
Histamine H3 receptor [2]
  Ki: 17.8 nM

## O=c1ccnc2ccc(-c3nnc(N4CCC(N5CCCCC5)CC4)s3)cn12
hERG
  inhibition at 10 µM: 7%
Mus musculus [4]
  inhibition in vivo at 30 mg/kg: 33.6%
Mus musculus [5]
  glucose change: -87 mg/dL
Cytochrome P450 2D6 [6]
  INH: > 20 µM
Mus musculus [1]
  Occ: 69%
Histamine H3 receptor [2]
  Ki: 13 nM
Cytochrome P450 2D6 [7]
  INH: > 20 µM
Mus musculus [8]
  Activity: -3.02%
[3]
  AUC(0-t) at 6 h: 7300 ng·h/mL
[9]
  concentration at 4 h: 1340 ng/g
Cytochrome P450 3A4 [10]
  INH: > 20 µM
Cytochrome P450 2C9 [11]
  IC50: > 20000 nM
Cytochrome P450 2C9 [12]
  INH: > 20 µM
Cytochrome P450 3A4 [13]
  INH: > 20 µM
Histamine H3 receptor [14]
  Ki: 25 nM

## Cc1nnc2ccc(-c3nnc(N4CCC(N5CCCCC5)CC4)s3)cn12
Mus musculus [15]
  Activity: inactive
Mus musculus [1]
  Occ: 34%
Histamine H3 receptor [2]
  Ki: 3.4 nM
[3]
  AUC(0-t) at 6 h: 1200 ng·h/mL
Mus musculus [16]
  Activity: inactive
[9]
  concentration at 4 h: 25 ng/g
Histamine H3 receptor [14]
  Ki: 2.4 nM

## O=C(c1cccc(-c2nnc(N3CCC(N4CCCCC4)CC3)s2)n1)N1CCC1
Mus musculus [1]
  Occ: 6%
Histamine H3 receptor [2]
  Ki: 4.4 nM

## O=c1ccoc2ccc(-c3nnc(N4CCC(N5CCCCC5)CC4)s3)cc12
Mus musculus [15]
  Activity: inactive
Mus musculus [1]
  Occ: 84%
Histamine H3 receptor [2]
  Ki: 12.7 nM
[3]
  AUC(0-t) at 6 h: 1300 ng·h/mL
Mus musculus [16]
  Activity: inactive
[9]
  concentration at 4 h: 268 ng/g
Histamine H3 receptor [14]
  Ki: 12 nM

## CC(=O)c1cccc(-c2nnc(N3CCC(N4CCCCC4)CC3)s2)c1
hERG
  inhibition at 10 µM: 40%
Mus musculus [4]
  inhibition in vivo at 30 mg/kg: 5.61%
Mus musculus [5]
  Activity: 7.08 mg/mL
Cytochrome P450 2D6 [6]
  INH: > 20 µM
Mus musculus [17]
  Occ: 62%
Cytochrome P450 2D6 [7]
  INH: > 20 µM
Mus musculus [8]
  Activity: -1.01%
Cytochrome P450 3A4 [10]
  INH: > 20 µM
Cytochrome P450 2C9 [11]
  IC50: > 20000 nM
Cytochrome P450 2C9 [12]
  INH: > 20 µM
Cytochrome P450 3A4 [13]
  INH: > 20 µM

## O=c1ccc2ccc(-c3nnc(N4CCC(N5CCCCC5)CC4)s3)cc2[nH]1
Mus musculus [1]
  Occ: 2%
Histamine H3 receptor [2]
  Ki: 35.9 nM

## c1cnc2c(-c3nnc(N4CCC(N5CCCCC5)CC4)s3)cccc2c1
Mus musculus [15]
  Activity: inactive
Mus musculus [1]
  Occ: 77%
Histamine H3 receptor [2]
  Ki: 4.6 nM
[3]
  AUC(0-t) at 6 h: 530 ng·h/mL
Mus musculus [16]
  Activity: inactive
[9]
  concentration at 4 h: 110 ng/g
Histamine H3 receptor [14]
  Ki: 7.2 nM

## c1cc(-c2nnc(N3CCC(N4CCCCC4)CC3)s2)n2nccc2c1
Mus musculus [1]
  Occ: 22%
Histamine H3 receptor [2]
  Ki: 3.2 nM

## CN(C)C(=O)c1cccc(-c2nnc(N3CCC(N4CCCCC4)CC3)s2)c1
Histamine H3 receptor [2]
  Ki: 192 nM

## Cc1nnc(-c2cccc(-c3nnc(N4CCC(N5CCCCC5)CC4)s3)c2)o1
Mus musculus [15]
  Activity: inactive
Mus musculus [1]
  Occ: 46%
Histamine H3 receptor [2]
  Ki: 22.8 nM
[3]
  AUC(0-t) at 6 h: 2500 ng·h/mL
Mus musculus [16]
  Activity: inactive
[9]
  concentration at 4 h: 1290 ng/g
Histamine H3 receptor [14]
  Ki: 40 nM

## O=c1ccc2cc(-c3nnc(N4CCC(N5CCCCC5)CC4)s3)ccc2[nH]1
Mus musculus [1]
  Occ: 25%
Histamine H3 receptor [2]
  Ki: 10 nM

## Cc1nc2cc(-c3nnc(N4CCC(N5CCCCC5)CC4)s3)ccc2o1
Histamine H3 receptor [2]
  Ki: 24.5 nM

## O=C1Cc2cc(-c3nnc(N4CCC(N5CCCCC5)CC4)s3)ccc2N1
Histamine H3 receptor [2]
  Ki: 64.4 nM

## O=C(c1cccc(-c2nnc(N3CCC(N4CCCCC4)CC3)s2)c1)N1CCC1
Histamine H3 receptor [2]
  Ki: 78.9 nM

## CC(O)c1cccc(-c2nnc(N3CCC(N4CCCCC4)CC3)s2)c1 (centres undefined)
Histamine H3 receptor [2]
  Ki: 29 nM

## O=c1ccc2c(-c3nnc(N4CCC(N5CCCCC5)CC4)s3)cccc2[nH]1
Mus musculus [1]
  Occ: 6%
Histamine H3 receptor [2]
  Ki: 20 nM

## O=c1ccnc2c(-c3nnc(N4CCC(N5CCCCC5)CC4)s3)cccn12
Mus musculus [15]
  Activity: inactive
Mus musculus [1]
  Occ: 94%
Histamine H3 receptor [2]
  Ki: 2.1 nM
[3]
  AUC(0-t) at 6 h: 840 ng·h/mL
Mus musculus [16]
  Activity: inactive
[9]
  concentration at 4 h: 2670 ng/g
Histamine H3 receptor [14]
  Ki: 2.6 nM
